Laboratory results from US20250312462A1, “PAK1 DEGRADERS AND METHODS OF USE THEREOF” (INSTITUTE FOR CANCER RESEARCH D/B/A THE RESEARCH INSTITUTE …, priority 2022, published 2025).

Tests used:
Assay in all cases: KINOMEscan
Conditions in all cases: read-out: Percent Control
[1] = target: DCAMKL2 (Homo sapiens, UniProt Q8N568)
Protocol: (§1) The kinase engagement assay (KINOMEscan®) was performed by DiscoverX assessing binding abilities toward a set of kinases.

[2] = target: PDPK1 (Homo sapiens, UniProt O15530)
Protocol: as §1

[3] = target: PIK3CD (Homo sapiens, UniProt O00329)
Protocol: as §1

[4] = target: MAPKAPK5 (Homo sapiens, UniProt Q8IW41)
Protocol: as §1

[5] = target: ERK8 (Homo sapiens, UniProt Q8TD08)
Protocol: as §1

[6] = target: PIM2 (Homo sapiens, UniProt Q9P1W9)
Protocol: as §1

[7] = target: NEK2 (Homo sapiens, UniProt P51955)
Protocol: as §1

[8] = target: STK36 (Homo sapiens, UniProt Q9NRP7)
Sequence of STK36 (Q9NRP7 whole entry): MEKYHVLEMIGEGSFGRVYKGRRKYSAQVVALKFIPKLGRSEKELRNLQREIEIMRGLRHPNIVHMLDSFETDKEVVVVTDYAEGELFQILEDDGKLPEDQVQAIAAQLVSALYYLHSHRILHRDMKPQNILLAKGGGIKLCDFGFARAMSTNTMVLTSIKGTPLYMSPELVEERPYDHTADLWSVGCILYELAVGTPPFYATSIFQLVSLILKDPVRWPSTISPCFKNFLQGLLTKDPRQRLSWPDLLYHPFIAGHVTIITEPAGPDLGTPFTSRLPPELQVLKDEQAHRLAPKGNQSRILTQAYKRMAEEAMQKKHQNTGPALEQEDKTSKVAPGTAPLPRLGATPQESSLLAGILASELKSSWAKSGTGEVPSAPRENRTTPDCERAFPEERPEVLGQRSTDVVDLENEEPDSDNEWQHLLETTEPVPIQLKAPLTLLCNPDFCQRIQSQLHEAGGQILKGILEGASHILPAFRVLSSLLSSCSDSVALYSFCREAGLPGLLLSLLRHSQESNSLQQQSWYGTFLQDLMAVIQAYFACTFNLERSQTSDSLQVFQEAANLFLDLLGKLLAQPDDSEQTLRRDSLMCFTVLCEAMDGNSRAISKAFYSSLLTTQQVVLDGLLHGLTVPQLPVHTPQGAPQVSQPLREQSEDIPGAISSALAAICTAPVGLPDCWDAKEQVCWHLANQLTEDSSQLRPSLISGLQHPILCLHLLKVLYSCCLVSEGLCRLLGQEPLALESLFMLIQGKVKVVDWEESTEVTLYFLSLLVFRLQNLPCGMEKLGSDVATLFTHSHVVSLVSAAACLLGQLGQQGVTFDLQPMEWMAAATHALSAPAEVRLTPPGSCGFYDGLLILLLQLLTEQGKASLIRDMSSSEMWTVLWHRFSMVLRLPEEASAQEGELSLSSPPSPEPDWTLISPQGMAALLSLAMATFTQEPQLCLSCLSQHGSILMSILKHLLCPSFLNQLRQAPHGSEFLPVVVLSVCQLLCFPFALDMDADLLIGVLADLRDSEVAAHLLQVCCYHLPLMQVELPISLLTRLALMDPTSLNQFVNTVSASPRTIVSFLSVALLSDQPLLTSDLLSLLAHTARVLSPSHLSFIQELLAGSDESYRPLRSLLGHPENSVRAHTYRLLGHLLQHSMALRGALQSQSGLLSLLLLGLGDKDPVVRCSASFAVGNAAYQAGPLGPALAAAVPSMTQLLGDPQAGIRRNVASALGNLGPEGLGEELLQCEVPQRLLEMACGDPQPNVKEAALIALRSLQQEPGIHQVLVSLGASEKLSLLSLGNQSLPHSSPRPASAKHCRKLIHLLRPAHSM
Protocol: as §1

[9] = target: EPHA1 (Homo sapiens, UniProt P21709)
Protocol: as §1

[10] = target: FLT3(D835H) (Homo sapiens, UniProt P36888, D835H)
Protocol: as §1

[11] = target: IKK-alpha (Homo sapiens, UniProt O15111)
Protocol: as §1

[12] = target: MARK1 (Homo sapiens, UniProt Q9P0L2)
Protocol: as §1

[13] = target: DRAK2 (Homo sapiens, UniProt O94768)
Protocol: as §1

[14] = target: CSF1R-autoinhibited (Homo sapiens, UniProt P07333)
Protocol: as §1

[15] = target: STK33 (Homo sapiens, UniProt Q9BYT3)
Protocol: as §1

[16] = target: CTK (Homo sapiens, UniProt P42679)
Protocol: as §1

[17] = target: DCAMKL3 (Homo sapiens, UniProt Q9C098)
Protocol: as §1

[18] = target: PIK3CA(I800L) (Homo sapiens, UniProt P42336, I800L)
Sequence of PIK3CA(I800L) (P42336 whole entry I800L): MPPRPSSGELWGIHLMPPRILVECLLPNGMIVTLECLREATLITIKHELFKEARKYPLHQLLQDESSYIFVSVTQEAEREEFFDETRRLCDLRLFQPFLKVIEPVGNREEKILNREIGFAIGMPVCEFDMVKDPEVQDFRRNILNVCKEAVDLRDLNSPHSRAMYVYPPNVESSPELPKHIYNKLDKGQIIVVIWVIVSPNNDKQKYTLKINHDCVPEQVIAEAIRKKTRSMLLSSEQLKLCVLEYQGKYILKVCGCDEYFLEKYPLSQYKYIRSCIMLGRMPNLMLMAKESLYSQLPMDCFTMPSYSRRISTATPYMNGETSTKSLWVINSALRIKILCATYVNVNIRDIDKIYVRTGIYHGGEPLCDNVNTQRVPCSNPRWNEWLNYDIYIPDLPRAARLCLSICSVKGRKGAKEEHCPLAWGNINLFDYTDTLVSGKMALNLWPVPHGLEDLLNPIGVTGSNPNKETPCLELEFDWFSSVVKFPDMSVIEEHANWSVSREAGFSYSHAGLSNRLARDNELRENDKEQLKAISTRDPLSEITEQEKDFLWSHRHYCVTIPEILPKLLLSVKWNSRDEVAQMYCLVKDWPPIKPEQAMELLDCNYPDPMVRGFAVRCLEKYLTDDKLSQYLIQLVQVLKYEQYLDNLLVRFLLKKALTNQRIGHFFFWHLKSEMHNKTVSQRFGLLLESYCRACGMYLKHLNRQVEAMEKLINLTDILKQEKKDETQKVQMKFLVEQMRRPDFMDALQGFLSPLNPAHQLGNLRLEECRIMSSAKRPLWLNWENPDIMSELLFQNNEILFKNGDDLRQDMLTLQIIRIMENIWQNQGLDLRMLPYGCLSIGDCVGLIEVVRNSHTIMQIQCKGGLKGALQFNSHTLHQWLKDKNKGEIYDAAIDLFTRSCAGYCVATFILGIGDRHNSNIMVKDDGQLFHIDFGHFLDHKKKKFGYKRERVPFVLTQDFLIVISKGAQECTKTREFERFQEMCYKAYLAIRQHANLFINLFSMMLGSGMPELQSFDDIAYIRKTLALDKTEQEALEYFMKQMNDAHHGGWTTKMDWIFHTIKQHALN
Protocol: as §1

[19] = target: CAMK1 (Homo sapiens, UniProt Q14012)
Protocol: as §1

[20] = target: MST4 (Homo sapiens, UniProt Q9P289)
Protocol: as §1

[21] = target: TAK1 (Homo sapiens, UniProt O43318)
Sequence of TAK1 (O43318 whole entry): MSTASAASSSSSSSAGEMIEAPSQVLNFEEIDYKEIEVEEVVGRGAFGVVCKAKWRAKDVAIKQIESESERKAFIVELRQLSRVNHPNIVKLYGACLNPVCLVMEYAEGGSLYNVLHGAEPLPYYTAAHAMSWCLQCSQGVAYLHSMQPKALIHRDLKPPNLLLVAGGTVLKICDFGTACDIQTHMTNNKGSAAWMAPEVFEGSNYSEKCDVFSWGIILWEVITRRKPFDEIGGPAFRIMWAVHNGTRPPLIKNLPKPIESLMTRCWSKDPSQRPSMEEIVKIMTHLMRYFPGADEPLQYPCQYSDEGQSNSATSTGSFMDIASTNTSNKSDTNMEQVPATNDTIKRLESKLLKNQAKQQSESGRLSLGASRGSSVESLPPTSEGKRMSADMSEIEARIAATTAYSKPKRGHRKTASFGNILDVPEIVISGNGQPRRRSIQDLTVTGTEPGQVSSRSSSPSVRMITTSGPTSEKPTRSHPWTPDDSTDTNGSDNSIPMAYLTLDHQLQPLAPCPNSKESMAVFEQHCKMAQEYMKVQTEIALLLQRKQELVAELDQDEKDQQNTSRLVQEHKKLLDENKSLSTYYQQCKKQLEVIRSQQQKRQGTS
Protocol: as §1

[22] = target: DAPK3 (Homo sapiens, UniProt O43293)
Protocol: as §1

[23] = target: TAOK3 (Homo sapiens, UniProt Q9H2K8)
Protocol: as §1

[24] = target: PRKD2 (Homo sapiens, UniProt Q9BZL6)
Protocol: as §1

[25] = target: BRAF (Homo sapiens, UniProt P15056)
Protocol: as §1

[26] = target: SGK (Homo sapiens, UniProt O00141)
Sequence of SGK (O00141 whole entry): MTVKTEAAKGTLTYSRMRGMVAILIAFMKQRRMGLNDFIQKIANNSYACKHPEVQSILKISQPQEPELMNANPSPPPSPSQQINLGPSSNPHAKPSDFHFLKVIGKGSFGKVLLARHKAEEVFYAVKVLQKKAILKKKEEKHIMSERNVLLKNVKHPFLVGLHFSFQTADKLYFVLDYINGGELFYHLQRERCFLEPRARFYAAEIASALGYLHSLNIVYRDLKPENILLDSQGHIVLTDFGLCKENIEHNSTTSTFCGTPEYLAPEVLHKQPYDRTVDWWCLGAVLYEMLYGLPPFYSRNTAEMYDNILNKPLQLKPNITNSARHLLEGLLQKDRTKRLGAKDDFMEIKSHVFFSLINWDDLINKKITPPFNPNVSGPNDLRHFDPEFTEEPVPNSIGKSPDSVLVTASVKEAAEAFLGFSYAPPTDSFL
Protocol: as §1

[27] = target: RIOK3 (Homo sapiens, UniProt O14730)
Protocol: as §1

[28] = target: PIK3CB (Homo sapiens, UniProt P42338)
Protocol: as §1

[29] = target: AURKB (Homo sapiens, UniProt Q96GD4)
Sequence of AURKB (Q96GD4 whole entry): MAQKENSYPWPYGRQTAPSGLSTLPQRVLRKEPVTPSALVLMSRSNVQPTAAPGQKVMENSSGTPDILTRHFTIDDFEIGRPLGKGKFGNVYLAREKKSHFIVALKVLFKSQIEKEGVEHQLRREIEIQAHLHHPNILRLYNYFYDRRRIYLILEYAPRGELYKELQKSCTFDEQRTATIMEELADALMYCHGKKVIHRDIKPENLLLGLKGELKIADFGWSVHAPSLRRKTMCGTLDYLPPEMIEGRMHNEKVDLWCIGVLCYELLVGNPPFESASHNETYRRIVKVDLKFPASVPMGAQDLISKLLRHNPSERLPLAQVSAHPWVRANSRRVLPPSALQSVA
Protocol: as §1

[30] = target: PKN2 (Homo sapiens, UniProt Q16513)
Protocol: as §1

[31] = target: IKK-beta (Homo sapiens, UniProt O14920)
Protocol: as §1

[32] = target: DAPK2 (Homo sapiens, UniProt Q9UIK4)
Protocol: as §1

[33] = target: BMPR1B (Homo sapiens, UniProt O00238)
Protocol: as §1

[34] = target: p38-beta (Homo sapiens, UniProt Q15759)
Protocol: as §1

[35] = target: MLK3 (Homo sapiens, UniProt Q16584)
Protocol: as §1

[36] = target: FGFR4 (Homo sapiens, UniProt P22455)
Protocol: as §1

[37] = target: BRSK1 (Homo sapiens, UniProt Q8TDC3)
Protocol: as §1

[38] = target: p38-delta (Homo sapiens, UniProt O15264)
Protocol: as §1

[39] = target: LATS2 (Homo sapiens, UniProt Q9NRM7)
Sequence of LATS2 (Q9NRM7 whole entry): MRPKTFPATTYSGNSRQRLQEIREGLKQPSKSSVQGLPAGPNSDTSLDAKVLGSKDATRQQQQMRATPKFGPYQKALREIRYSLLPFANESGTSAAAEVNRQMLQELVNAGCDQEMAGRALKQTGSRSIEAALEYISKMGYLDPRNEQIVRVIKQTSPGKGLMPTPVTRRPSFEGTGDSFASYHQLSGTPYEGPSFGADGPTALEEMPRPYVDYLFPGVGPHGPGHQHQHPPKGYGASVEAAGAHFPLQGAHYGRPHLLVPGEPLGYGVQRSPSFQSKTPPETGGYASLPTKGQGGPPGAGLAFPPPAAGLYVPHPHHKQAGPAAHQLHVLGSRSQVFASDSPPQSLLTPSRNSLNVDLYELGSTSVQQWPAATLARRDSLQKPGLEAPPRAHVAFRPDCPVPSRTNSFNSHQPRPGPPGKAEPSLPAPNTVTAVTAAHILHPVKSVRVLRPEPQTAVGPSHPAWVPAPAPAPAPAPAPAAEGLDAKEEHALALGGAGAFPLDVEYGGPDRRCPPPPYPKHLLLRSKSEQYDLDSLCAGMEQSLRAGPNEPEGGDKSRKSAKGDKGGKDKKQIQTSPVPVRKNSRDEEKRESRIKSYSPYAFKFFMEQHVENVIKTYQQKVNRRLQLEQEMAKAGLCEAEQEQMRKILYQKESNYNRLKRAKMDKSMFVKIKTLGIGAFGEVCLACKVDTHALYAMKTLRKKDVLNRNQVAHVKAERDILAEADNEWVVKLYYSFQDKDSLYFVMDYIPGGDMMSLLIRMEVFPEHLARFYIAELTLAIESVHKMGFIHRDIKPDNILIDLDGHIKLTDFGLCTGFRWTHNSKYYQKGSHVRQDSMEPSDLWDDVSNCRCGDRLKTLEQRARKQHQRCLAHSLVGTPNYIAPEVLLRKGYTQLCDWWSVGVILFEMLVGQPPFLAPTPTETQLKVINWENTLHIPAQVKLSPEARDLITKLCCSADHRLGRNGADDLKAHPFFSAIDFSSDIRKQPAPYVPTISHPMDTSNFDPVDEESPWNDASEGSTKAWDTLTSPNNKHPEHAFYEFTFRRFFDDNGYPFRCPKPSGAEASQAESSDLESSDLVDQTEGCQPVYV
Protocol: as §1

## O=C1CCC(N2C(=O)c3cccc(NCCCCCCCCNC(=O)N4CC[C@H](NC5=Nc6cc(F)ccc6N(CC(F)F)c6ccc(Cl)cc65)C4)c3C2=O)C(=O)N1 (stereo partly drawn) [BJG-05-039, (3S)-3-((2-Chloro-5-(2,2-difluoroethyl)-8-fluoro-5H-dibenzo[b,e][1,4]diazepin-11-yl)amino)-N-(8-((2-(2,6-dioxopiperidin-3-yl)-1,3-dioxoisoindolin-4-yl)amino)octyl)pyrrolidine-1-carboxamide]
[1]
  remaining binding at 10 µM: 92%
[2]
  remaining binding at 10 µM: 86%
[3]
  remaining binding at 10 µM: 100%
[4]
  remaining binding at 10 µM: 100%
[5]
  remaining binding at 10 µM: 63%
[6]
  remaining binding at 10 µM: 82%
[7]
  remaining binding at 10 µM: 52%
[8]
  remaining binding at 10 µM: 82%
[9]
  remaining binding at 10 µM: 98%
[10]
  remaining binding at 10 µM: 83%
[11]
  remaining binding at 10 µM: 91%
[12]
  remaining binding at 10 µM: 98%
[13]
  remaining binding at 10 µM: 58%
[14]
  remaining binding at 10 µM: 100%
[15]
  remaining binding at 10 µM: 75%
[16]
  remaining binding at 10 µM: 89%
[17]
  remaining binding at 10 µM: 79%
[18]
  remaining binding at 10 µM: 100%
[19]
  remaining binding at 10 µM: 52%
[20]
  remaining binding at 10 µM: 86%
[21]
  remaining binding at 10 µM: 100%
[22]
  remaining binding at 10 µM: 40%
[23]
  remaining binding at 10 µM: 85%
[24]
  remaining binding at 10 µM: 53%
[25]
  remaining binding at 10 µM: 98%
[26]
  remaining binding at 10 µM: 100%
[27]
  remaining binding at 10 µM: 84%
[28]
  remaining binding at 10 µM: 100%
[29]
  remaining binding at 10 µM: 93%
[30]
  remaining binding at 10 µM: 65%
[31]
  remaining binding at 10 µM: 94%
[32]
  remaining binding at 10 µM: 41%
[33]
  remaining binding at 10 µM: 85%
[34]
  remaining binding at 10 µM: 97%
[35]
  remaining binding at 10 µM: 88%
[36]
  remaining binding at 10 µM: 68%
[37]
  remaining binding at 10 µM: 51%
[38]
  remaining binding at 10 µM: 92%
[39]
  remaining binding at 10 µM: 100%
